Data: patent US8575091B1, “Amylin analogues and pharmaceutical compositions thereof” (Novo Nordisk A/S, priority 2012, dated 2013)
Numbered stars: 1 amine (or outer) side, 2 acyl side, 3 side chain; on linkers, the order of the positions; unused ones are H or OH. Bridge positions count the residues as written; N and C are the ends. Side chains are listed from the residue outwards. Peptide text beside a SMILES is read from it. * marks the point of attachment. C20 diacid = O=C(O)CCCCCCCCCCCCCCCCCCC(=O)*; γGlu = O=C(O)[C@H](CCC(=O)[*:2])N[*:1]; AEEA = NCCOCCOCC(=O)O

Assays:
[1] = molecular target: T1, human amylin receptor (amylin 3(a) receptor: human calcitonin receptor + RAMP-3) (Homo sapiens, UniProt O60896+P30988); experiment: Assay (II)a functional assay, human amylin receptor (CRE luciferase, BHK cells); assay type: cell-based; conditions: Table 6; human functional selectivity (hCTR EC50 / hAmylin-R EC50)
T1 construct: expressed in transfected cells
T1 sequence (P30988 25-474): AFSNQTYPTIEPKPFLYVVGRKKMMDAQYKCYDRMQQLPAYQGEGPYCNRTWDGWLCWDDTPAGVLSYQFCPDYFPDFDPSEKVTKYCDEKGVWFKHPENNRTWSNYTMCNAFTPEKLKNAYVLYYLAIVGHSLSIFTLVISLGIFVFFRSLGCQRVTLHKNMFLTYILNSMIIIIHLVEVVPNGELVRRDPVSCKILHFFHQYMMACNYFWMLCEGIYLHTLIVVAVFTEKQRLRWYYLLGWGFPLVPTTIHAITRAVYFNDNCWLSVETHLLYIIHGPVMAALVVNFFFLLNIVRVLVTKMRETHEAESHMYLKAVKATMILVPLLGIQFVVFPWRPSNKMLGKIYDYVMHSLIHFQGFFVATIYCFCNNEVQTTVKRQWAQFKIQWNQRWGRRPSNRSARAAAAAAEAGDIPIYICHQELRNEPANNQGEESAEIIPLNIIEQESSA
T1 sequence (O60896 24-148 partner): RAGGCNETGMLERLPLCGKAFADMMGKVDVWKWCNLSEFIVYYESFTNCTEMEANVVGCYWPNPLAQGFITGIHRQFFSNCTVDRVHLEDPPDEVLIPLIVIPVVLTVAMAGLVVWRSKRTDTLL

human amylin receptor = molecular target: T2, human amylin receptor (Homo sapiens, UniProt O60896+P30988); experiment: Assay (V) binding to the human amylin receptor (SPA, 125I-rat amylin)
T2 construct: expressed in transfected cells
T2 sequence (P30988 25-474): T1 sequence (P30988 25-474)
T2 sequence (O60896 24-148 partner): T1 sequence (O60896 24-148 partner)
Description: The binding assay was performed using scintillation proximity assay (SPA) beads (RPNQ0001) from PerkinElmer and cell membranes from the Amylin 3(a)/CRE-luc cells (as described in Assay (II)) were used. Membranes were prepared in the following way; the cells were rinsed with PBS and incubated with Versene for approximately 5 min before harvesting. The cells were flushed with PBS and the cell-suspension was centrifuged for 5 min at 1000 rpm. […] The resulting pellet was resuspended in buffer 2 and protein concentration was measured (BCA protein Assay, Pierce). The homogenate was kept cold during the whole procedure. The membranes were kept at −80° C. until use. The assay was performed in a 384 well Optiplate (PerkinElmer) in a total volume of 40 ul. Membranes were mixed with SPA beads. Final concentration of membranes 35 ng/μL final and SPA beads was 0.05 mg/well. Test-compounds were dissolved in DMSO and further diluted in assay buffer (50 mM Hepes, pH 7.4, 1 mM CaCl2, 5 mM MgCl2, 0.1% OA and 0.02% Tween20). […] Samples were analyzed on TopCounter™ (Packard). The IC50 was calculated using (one site binding competition analysis) GraphPad Prism5 as a measure of receptor affinity.

[2] = human binding ratio, included for comparison
[3] = Table 7b, human calcitonin receptor binding IC50 divided by human amylin receptor binding IC50
[4] = Table 7c, human calcitonin receptor binding IC50 divided by human amylin receptor binding IC50

| SMILES | Ratio hCT/hAmylin funct. [1] | Ratio hCT/hAmylin binding (human amylin receptor; [2]) | Ratio hCT/hAmylin binding (human amylin receptor; [3]) | Ratio hCT/hAmylin binding (human amylin receptor; [4]) | IC50 (human amylin receptor; human amylin receptor membranes, SPA, read-out: hAmylin-R bind IC50) [nM] |
| --- | --- | --- | --- | --- | --- |
| CC[C@H](C)[C@H](NC(=O)[C@H](C)NC(=O)CNC(=O)[C@H](Cc1ccccc1)NC(=O)[C@H](CC(N)=O)NC(=O)[C@@H]1CCCN1C(=O)[C@H](CO)NC(=O)[C@H](CO)NC(=O)[C@H](Cc1c[nH]cn1)NC(=O)[C@H](CCCNC(=N)N)NC(=O)[C@H](CC(C)C)NC(=O)[C@H](Cc1ccccc1)NC(=O)[C@H](CCC(=O)O)NC(=O)[C@H](C)NC(=O)[C@H](CC(C)C)NC(=O)[C@H](CCCNC(=N)N)NC(=O)[C@H](CCC(N)=O)NC(=O)[C@@H](NC(=O)[C@H](C)NC(=O)[C@@H]1CSSC[C@H](NC(=O)[C@H](CCCCN)NC(=O)CC[C@H](NC(=O)CCCCCCCCCCCCCCCCCCC(=O)O)C(=O)O)C(=O)N[C@@H](CC(N)=O)C(=O)N[C@@H]([C@@H](C)O)C(=O)N[C@@H](C)C(=O)N[C@@H]([C@@H](C)O)C(=O)N1)[C@@H](C)O)C(=O)N1CCC[C@H]1C(=O)N[C@@H](CO)C(=O)N[C@@H](CO)C(=O)N[C@H](C(=O)N[C@@H](CC(N)=O)C(=O)N[C@H](C(=O)NCC(=O)N[C@@H](CO)C(=O)N[C@@H](Cc1c[nH]cn1)C(=O)N[C@H](C(=O)N[C@@H](Cc1ccc(O)cc1)C(N)=O)[C@@H](C)O)C(C)C)[C@@H](C)O [Example 18] ({C20 diacid-γGlu}-KCNTATCATQRLAEFLRHSSPNFGAIPSSTNVGSHTY-NH2; disulfide 2-7) | 4.8 | 9.2 |  |  |  |
| CC[C@H](C)[C@H](NC(=O)[C@H](C)NC(=O)CNC(=O)[C@H](Cc1ccccc1)NC(=O)[C@H](CC(N)=O)NC(=O)[C@@H]1CCCN1C(=O)[C@H](CO)NC(=O)[C@H](CO)NC(=O)[C@H](Cc1c[nH]cn1)NC(=O)[C@H](CCCNC(=N)N)NC(=O)[C@H](CC(C)C)NC(=O)[C@H](Cc1ccccc1)NC(=O)[C@H](CCC(=O)O)NC(=O)[C@H](C)NC(=O)[C@H](CC(C)C)NC(=O)[C@H](CCCNC(=N)N)NC(=O)[C@H](CCC(N)=O)NC(=O)[C@@H](NC(=O)[C@H](C)NC(=O)[C@@H]1CSSC[C@H](NC(=O)[C@H](CCCCN)NC(=O)CC[C@H](NC(=O)CCCCCCCCCCCCCCCCCCC(=O)O)C(=O)O)C(=O)N[C@@H](CC(N)=O)C(=O)N[C@@H]([C@@H](C)O)C(=O)N[C@@H](C)C(=O)N[C@@H]([C@@H](C)O)C(=O)N1)[C@@H](C)O)C(=O)N1CCC[C@H]1C(=O)N[C@@H](CO)C(=O)N1CCC[C@H]1C(=O)N[C@H](C(=O)N[C@@H](CC(N)=O)C(=O)N[C@H](C(=O)NCC(=O)N[C@@H](CO)C(=O)N[C@@H](CC(N)=O)C(=O)N[C@H](C(=O)N[C@@H](Cc1ccc(O)cc1)C(N)=O)[C@@H](C)O)C(C)C)[C@@H](C)O [Example 37] ({C20 diacid-γGlu}-KCNTATCATQRLAEFLRHSSPNFGAIPSPTNVGSNTY-NH2; disulfide 2-7) | 4.0 | 2.3 |  |  |  |
| CC[C@H](C)[C@H](NC(=O)[C@H](C)NC(=O)CNC(=O)[C@H](Cc1ccccc1)NC(=O)[C@H](CC(N)=O)NC(=O)[C@@H]1CCCN1C(=O)[C@H](CO)NC(=O)[C@H](CO)NC(=O)[C@H](Cc1c[nH]cn1)NC(=O)[C@H](CCCNC(=N)N)NC(=O)[C@H](CC(C)C)NC(=O)[C@H](Cc1ccccc1)NC(=O)[C@H](Cc1c[nH]cn1)NC(=O)[C@H](C)NC(=O)[C@H](CC(C)C)NC(=O)[C@H](CCCNC(=N)N)NC(=O)[C@H](CCC(N)=O)NC(=O)[C@@H](NC(=O)[C@H](C)NC(=O)[C@@H]1CSSC[C@H](NC(=O)[C@@H](N)CCCCNC(=O)CC[C@H](NC(=O)CCCCCCCCCCCCCCCCCCC(=O)O)C(=O)O)C(=O)N[C@@H](CC(N)=O)C(=O)N[C@@H]([C@@H](C)O)C(=O)N[C@@H](C)C(=O)N[C@@H]([C@@H](C)O)C(=O)N1)[C@@H](C)O)C(=O)N1CCC[C@H]1C(=O)N[C@@H](CO)C(=O)N[C@@H](CO)C(=O)N[C@H](C(=O)N1CCC[C@H]1C(=O)N[C@H](C(=O)NCC(=O)N[C@@H](CO)C(=O)N[C@@H](CC(N)=O)C(=O)N[C@H](C(=O)N[C@@H](Cc1ccc(O)cc1)C(N)=O)[C@@H](C)O)C(C)C)[C@@H](C)O [Example 62] (H-K([γGlu-C20 diacid])CNTATCATQRLAHFLRHSSPNFGAIPSSTPVGSNTY-NH2; disulfide 2-7; N-terminus assumed) |  | 63.0 | 63.0 | 63.0 |  |
| CC[C@H](C)[C@H](NC(=O)[C@H](C)NC(=O)CNC(=O)[C@H](Cc1ccccc1)NC(=O)[C@H](CC(N)=O)NC(=O)[C@@H]1CCCN1C(=O)[C@H](CO)NC(=O)[C@H](CO)NC(=O)[C@H](Cc1c[nH]cn1)NC(=O)[C@H](CCCNC(=N)N)NC(=O)[C@H](CC(C)C)NC(=O)[C@H](Cc1ccccc1)NC(=O)[C@H](CC(N)=O)NC(=O)[C@H](C)NC(=O)[C@H](CC(C)C)NC(=O)[C@H](CCCNC(=N)N)NC(=O)[C@H](CCC(N)=O)NC(=O)[C@@H](NC(=O)[C@H](C)NC(=O)[C@@H]1CSSC[C@H](NC(=O)[C@H](CCCCN)NC(=O)CC[C@H](NC(=O)CCCCCCCCCCCCCCCCCCC(=O)O)C(=O)O)C(=O)N[C@@H](CC(N)=O)C(=O)N[C@@H]([C@@H](C)O)C(=O)N[C@@H](C)C(=O)N[C@@H]([C@@H](C)O)C(=O)N1)[C@@H](C)O)C(=O)N1CCC[C@H]1C(=O)N[C@@H](CO)C(=O)N[C@@H](CO)C(=O)N[C@H](C(=O)N[C@@H](CC(N)=O)C(=O)N[C@H](C(=O)NCC(=O)N[C@@H](CCCNC(=N)N)C(=O)N[C@@H](CC(N)=O)C(=O)N[C@H](C(=O)N[C@@H](Cc1ccc(O)cc1)C(N)=O)[C@@H](C)O)C(C)C)[C@@H](C)O [Example 39] ({C20 diacid-γGlu}-KCNTATCATQRLANFLRHSSPNFGAIPSSTNVGRNTY-NH2; disulfide 2-7) |  | 29.0 | 29.0 | 29.0 |  |
| CC[C@H](C)[C@H](NC(=O)[C@H](C)NC(=O)CNC(=O)[C@H](Cc1ccccc1)NC(=O)[C@H](CC(N)=O)NC(=O)[C@@H]1CCCN1C(=O)[C@H](CO)NC(=O)[C@H](CO)NC(=O)[C@H](Cc1c[nH]cn1)NC(=O)[C@H](CCCNC(=N)N)NC(=O)[C@H](CC(C)C)NC(=O)[C@H](Cc1ccccc1)NC(=O)[C@H](CC(N)=O)NC(=O)[C@H](C)NC(=O)[C@H](CC(C)C)NC(=O)[C@H](CCCNC(=N)N)NC(=O)[C@H](CCC(N)=O)NC(=O)[C@@H](NC(=O)[C@H](C)NC(=O)[C@@H]1CSSC[C@H](NC(=O)[C@@H](N)CCCCNC(=O)COCCOCCNC(=O)CC[C@H](NC(=O)CCCCCCCCCCCCCCCCCCC(=O)O)C(=O)O)C(=O)N[C@@H](CC(N)=O)C(=O)N[C@@H]([C@@H](C)O)C(=O)N[C@@H](C)C(=O)N[C@@H]([C@@H](C)O)C(=O)N1)[C@@H](C)O)C(=O)N1CCC[C@H]1C(=O)N[C@@H](CO)C(=O)N[C@@H](CO)C(=O)N[C@H](C(=O)N[C@@H](CC(N)=O)C(=O)N[C@H](C(=O)NCC(=O)N[C@@H](CO)C(=O)N[C@@H](CCCNC(=N)N)C(=O)N[C@H](C(=O)N[C@@H](Cc1ccc(O)cc1)C(N)=O)[C@@H](C)O)C(C)C)[C@@H](C)O [Example 38] |  |  |  |  | 0.249 |
| CC[C@H](C)[C@H](NC(=O)[C@H](C)NC(=O)CNC(=O)[C@H](Cc1ccccc1)NC(=O)[C@H](CC(N)=O)NC(=O)[C@@H]1CCCN1C(=O)[C@H](CO)NC(=O)[C@H](CO)NC(=O)[C@H](Cc1c[nH]cn1)NC(=O)[C@H](CCCNC(=N)N)NC(=O)[C@H](CC(C)C)NC(=O)[C@H](Cc1ccccc1)NC(=O)[C@H](CC(N)=O)NC(=O)[C@H](C)NC(=O)[C@H](CC(C)C)NC(=O)[C@H](CCCNC(=N)N)NC(=O)[C@H](CCC(N)=O)NC(=O)[C@@H](NC(=O)[C@H](C)NC(=O)[C@@H]1CSSC[C@H](NC(=O)[C@@H](N)CCCCNC(=O)COCCOCCNC(=O)CC[C@H](NC(=O)CCCCCCCCCCCCCCCCCCC(=O)O)C(=O)O)C(=O)N[C@@H](CC(N)=O)C(=O)N[C@@H]([C@@H](C)O)C(=O)N[C@@H](C)C(=O)N[C@@H]([C@@H](C)O)C(=O)N1)[C@@H](C)O)C(=O)N1CCC[C@H]1C(=O)N[C@@H](CO)C(=O)N[C@@H](CO)C(=O)N[C@H](C(=O)N[C@@H](CC(N)=O)C(=O)N[C@H](C(=O)NCC(=O)N[C@@H](Cc1c[nH]cn1)C(=O)N[C@@H](CC(N)=O)C(=O)N[C@H](C(=O)N[C@@H](Cc1ccc(O)cc1)C(N)=O)[C@@H](C)O)C(C)C)[C@@H](C)O [Example 76] (H-K([AEEA-γGlu-C20 diacid])CNTATCATQRLANFLRHSSPNFGAIPSSTNVGHNTY-NH2; disulfide 2-7 (inferred); N-terminus and C-terminus assumed) |  | 80.0 | 80.0 | 80.0 |  |
